Legend:
Assay in all cases: relative viability (nuclei count vs DMSO), 5 days (fraction); higher = more cells survive
[1] = compound: CN(C)CC1=CC(=CC=C1)N=C(C2=CC=CC=C2)C3=C(NC4=C3C=CC(=C4)C(=O)N(C)C)O
Summary of the method: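 Five library-drug doses, separated by factors of √10, were pinned into 1536-well plates holding lung cancer cell lines after an overnight stay at 37 °C. Cells were fixed, permeabilised and Hoechst-stained in one step after 5 days without medium change, then imaged at 4×. Viability compares treated-well with vehicle-well nuclei, counted in MetaXpress, as a median across plates. Passing plates had control CV below 25% and at least one doubling.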

[2] = compound: CN(C)CC1=CC(=CC=C1)N=C(C2=CC=CC=C2)C3=C(NC4=C3C=CC(=C4)C(=O)N(C)C)O + O=C(c1cc(Cc2n[nH]c(=O)c3ccccc23)ccc1F)N1CCN(C(=O)C2CC2)CC1 [Olaparib] (partner 8 µM)
Summary of the method: (§1)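 Dosing by pin tool came one day after lung cancer cell lines were seeded in 1536-well plates, using either one drug or a fixed anchor-drug dose plus five library-drug doses (not always all listed) in √10 steps. After 5 days, nuclei were counted on 4× images. Relative viability is treated-well nuclei count divided by vehicle-well nuclei count, and values are medians of duplicate plates.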

[3] = compound: CN(C)CC1=CC(=CC=C1)N=C(C2=CC=CC=C2)C3=C(NC4=C3C=CC(=C4)C(=O)N(C)C)O + CS(=O)(=O)CCNCc1ccc(-c2ccc3ncnc(Nc4ccc(OCc5cccc(F)c5)c(Cl)c4)c3c2)o1 [Lapatinib] (partner 2 µM)
Summary of the method: as §1

[4] = compound: CN(C)CC1=CC(=CC=C1)N=C(C2=CC=CC=C2)C3=C(NC4=C3C=CC(=C4)C(=O)N(C)C)O + COc1cc2c(Oc3ccc(NC(=O)C4(C(=O)Nc5ccc(F)cc5)CC4)cc3F)ccnc2cc1OCCCN1CCOCC1 [Foretinib] (partner 0.25 µM)
Summary of the method: as §1

[5] = compound: CN(C)CC1=CC(=CC=C1)N=C(C2=CC=CC=C2)C3=C(NC4=C3C=CC(=C4)C(=O)N(C)C)O + C[C@@H](Oc1cc(-c2cnn(C3CCNCC3)c2)cnc1N)c1c(Cl)ccc(F)c1Cl [Crizotinib] (partner 1 µM)
Summary of the method: as §1

[6] = compound: CN(C)CC1=CC(=CC=C1)N=C(C2=CC=CC=C2)C3=C(NC4=C3C=CC(=C4)C(=O)N(C)C)O + N=C(N)NC(=N)NCCc1ccccc1 [Phenformin] (partner 250 µM)
Summary of the method: as §1

[7] = compound: CN(C)CC1=CC(=CC=C1)N=C(C2=CC=CC=C2)C3=C(NC4=C3C=CC(=C4)C(=O)N(C)C)O + CC1(C)CCC(c2ccc(Cl)cc2)=C(CN2CCN(c3ccc(C(=O)NS(=O)(=O)c4ccc(N[C@H](CCN5CCOCC5)CSc5ccccc5)c(S(=O)(=O)C(F)(F)F)c4)cc3)CC2)C1 [Navitoclax] (partner 0.5 µM)
Summary of the method: as §1

[8] = compound: CN(C)CC1=CC(=CC=C1)N=C(C2=CC=CC=C2)C3=C(NC4=C3C=CC(=C4)C(=O)N(C)C)O + C[C@]1(O)C[C@@H](c2nc(-c3ccc4ccc(-c5ccccc5)nc4c3)c3c(N)nccn32)C1 [Linsitinib] (partner 1 µM)
Summary of the method: as §1

[9] = compound: CN(C)CC1=CC(=CC=C1)N=C(C2=CC=CC=C2)C3=C(NC4=C3C=CC(=C4)C(=O)N(C)C)O + Nc1ncn([C@H]2C[C@H](O)[C@@H](CO)O2)c(=O)n1 [Decitabine] (partner 2 µM)
Summary of the method: as §1

[10] = compound: CN(C)CC1=CC(=CC=C1)N=C(C2=CC=CC=C2)C3=C(NC4=C3C=CC(=C4)C(=O)N(C)C)O + Cc1nc(NC(=O)N2CCC[C@H]2C(N)=O)sc1-c1ccnc(C(C)(C)C(F)(F)F)c1 [Alpelisib] (partner 2 µM)
Summary of the method: as §1

[11] = compound: CN(C)CC1=CC(=CC=C1)N=C(C2=CC=CC=C2)C3=C(NC4=C3C=CC(=C4)C(=O)N(C)C)O + CS(=O)(=O)N1CCN(Cc2cc3nc(-c4cccc5[nH]ncc45)nc(N4CCOCC4)c3s2)CC1 [Pictilisib] (partner 1 µM)
Summary of the method: as §1

## A549
[1]; 0.08 µM
  relative viability: 1.01
[1]; 0.253 µM
  relative viability: 0.991
[1]; 0.8 µM
  relative viability: 1.01
[1]; 2.53 µM
  relative viability: 0.929
[1]; 8 µM
  relative viability: 0.901
[2]; first compound 0.08 µM
  relative viability: 0.294
[2]; first compound 0.253 µM
  relative viability: 0.372
[2]; first compound 0.8 µM
  relative viability: 0.401
[2]; first compound 2.53 µM
  relative viability: 0.148
[2]; first compound 8 µM
  relative viability: 0.406
[3]; first compound 0.08 µM
  relative viability: 0.962
[3]; first compound 0.253 µM
  relative viability: 1.01
[3]; first compound 0.8 µM
  relative viability: 1.02
[3]; first compound 2.53 µM
  relative viability: 0.945
[3]; first compound 8 µM
  relative viability: 0.934
[4]; first compound 0.08 µM
  relative viability: 0.988
[4]; first compound 0.253 µM
  relative viability: 0.927
[4]; first compound 0.8 µM
  relative viability: 0.948
[4]; first compound 2.53 µM
  relative viability: 0.899
[4]; first compound 8 µM
  relative viability: 1.02
[5]; first compound 0.08 µM
  relative viability: 0.847
[5]; first compound 0.253 µM
  relative viability: 0.683
[5]; first compound 0.8 µM
  relative viability: 0.818
[5]; first compound 2.53 µM
  relative viability: 0.686
[5]; first compound 8 µM
  relative viability: 0.731
[6]; first compound 0.08 µM
  relative viability: 0.202
[6]; first compound 0.253 µM
  relative viability: 0.157
[6]; first compound 0.8 µM
  relative viability: 0.124
[6]; first compound 2.53 µM
  relative viability: 0.0946
[6]; first compound 8 µM
  relative viability: 0.16
[7]; first compound 0.08 µM
  relative viability: 1.23
[7]; first compound 0.253 µM
  relative viability: 1.24
[7]; first compound 0.8 µM
  relative viability: 1.19
[7]; first compound 2.53 µM
  relative viability: 1.2
[7]; first compound 8 µM
  relative viability: 1.2
[8]; first compound 0.08 µM
  relative viability: 0.595
[8]; first compound 0.253 µM
  relative viability: 0.575
[8]; first compound 0.8 µM
  relative viability: 0.518
[8]; first compound 2.53 µM
  relative viability: 0.544
[8]; first compound 8 µM
  relative viability: 0.475
[9]; first compound 0.253 µM
  relative viability: 0.286
[9]; first compound 0.8 µM
  relative viability: 0.27
[9]; first compound 2.53 µM
  relative viability: 0.223
[9]; first compound 8 µM
  relative viability: 0.246
[10]; first compound 0.08 µM
  relative viability: 0.77
[10]; first compound 0.253 µM
  relative viability: 0.921
[10]; first compound 0.8 µM
  relative viability: 0.883
[10]; first compound 2.53 µM
  relative viability: 0.711
[10]; first compound 8 µM
  relative viability: 0.592
[11]; first compound 0.08 µM
  relative viability: 0.525
[11]; first compound 0.253 µM
  relative viability: 0.509
[11]; first compound 0.8 µM
  relative viability: 0.448
[11]; first compound 2.53 µM
  relative viability: 0.438
[11]; first compound 8 µM
  relative viability: 0.384

From the supplement of paper PMC10307832
